This is an account of results in patent publication US4808621A, “Trans-6-[2-(N-heteroaryl-3,5-disubstituted)pyrazol-4-yl)-ethyl]- or ethenyl]tetrahydro-4-hydroxypyran-2-one inhibitors of cholesterol biosynthesis” (Warner-Lambert Company, priority 1987, dated 1989).

What is called IC50 is the concentration at which inhibition is half-maximal.

The test system of test [1] is sterol synthesis by rat liver homogenate. The test can be described thus: CSI screen: inhibition of incorporation of 14C-acetate into nonsaponifiable lipid by rat liver homogenate (sterol synthesis). Particulars: 50% inhibition of sterol synthesis over a one-hour period, liver homogenate of cholestyramine-fed rats. The test is classed as biochemical. On the procedure:
The ability of compounds of the present invention to inhibit the biosynthesis of cholesterol was measured by two methods. A first method (designated CSI screen) utilized the procedure described by R. E. Dugan et al., Archiv. Biochem. Biophys., (1972), 152, 21-27. In this method, the level of HMG-CoA enzyme activity in standard laboratory rats is increased by feeding the rats a chow diet containing 5% cholestyramine for four days, after which the rats are sacrificed.
The rat livers are homogenized, and the incorporation of ^14 C-acetate into nonsaponifiable lipid by the rat liver homogenate is measured. The micromolar concentration of compound required for 50% inhibition of sterol synthesis over a one-hour period is measured, and expressed as an IC50 value.

For test [2], the target named is T1, HMG-CoA reductase (Rattus norvegicus, UniProt P51639).
T1 sequence (P51639 1-887): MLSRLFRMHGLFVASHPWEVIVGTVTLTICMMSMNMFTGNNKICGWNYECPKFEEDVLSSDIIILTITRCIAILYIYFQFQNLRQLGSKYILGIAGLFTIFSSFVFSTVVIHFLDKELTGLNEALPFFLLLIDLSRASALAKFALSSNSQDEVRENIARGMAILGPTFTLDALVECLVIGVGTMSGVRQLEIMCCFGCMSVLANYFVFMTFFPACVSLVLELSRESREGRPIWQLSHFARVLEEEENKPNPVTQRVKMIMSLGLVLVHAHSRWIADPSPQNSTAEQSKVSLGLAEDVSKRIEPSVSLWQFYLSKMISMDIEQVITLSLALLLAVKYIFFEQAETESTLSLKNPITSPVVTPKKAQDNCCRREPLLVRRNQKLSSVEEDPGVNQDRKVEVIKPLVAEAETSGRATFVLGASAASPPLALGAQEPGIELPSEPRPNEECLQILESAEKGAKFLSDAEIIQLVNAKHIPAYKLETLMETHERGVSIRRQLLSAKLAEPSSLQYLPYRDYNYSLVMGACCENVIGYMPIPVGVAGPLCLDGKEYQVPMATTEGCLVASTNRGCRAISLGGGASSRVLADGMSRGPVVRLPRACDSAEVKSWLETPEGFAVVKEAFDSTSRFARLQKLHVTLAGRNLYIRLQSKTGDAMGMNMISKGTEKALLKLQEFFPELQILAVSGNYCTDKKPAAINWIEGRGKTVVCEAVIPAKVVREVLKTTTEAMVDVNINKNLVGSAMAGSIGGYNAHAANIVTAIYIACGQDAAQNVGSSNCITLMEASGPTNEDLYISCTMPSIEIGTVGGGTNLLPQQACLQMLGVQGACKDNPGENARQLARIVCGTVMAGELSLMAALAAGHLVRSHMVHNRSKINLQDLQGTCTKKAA
The experiment in a line: COR screen: conversion of 14C-HMG-CoA to 14C-mevalonate by purified HMG-CoA reductase. The following applies: purified enzyme preparation of HMG-CoA reductase, 14C-HMG-CoA converted to 14C-mevalonate. The class given is biochemical. On the procedure:
A second method (designated COR screen) employed the procedure detailed by T. Kita, et al., J. Clin. Invest., (1980), 66: 1094-1100. In this method, the amount of ^14 C-HMG-CoA converted to ^14 C-mevalonate in the presence of a purified enzyme preparation of HMG-CoA reductase was measured. The micromolar concentration of compound required for 50% inhibition of cholesterol synthesis was measured and recorded as an IC50 value.

In the case of `CC[C@H](C)C(=O)O[C@H]1CCC=C2C=C[C@H](C)[C@H](CC[C@@H]3C[C@@H](O)CC(=O)O3)[C@H]21` [Compactin, reference compound], the midpoint of inhibition in test [1], the IC50, lay at 26 nM.
Take `CC(C)c1nn(-c2ccccn2)c(-c2ccc(F)cc2)c1CC[C@H]1C[C@H](O)CC(=O)O1` (relative stereo) [Compound 1, trans-6-[2-[5-(4-fluorophenyl)-3-(1-methylethyl)-1-(2-pyridinyl)-1H-pyrazol-4-yl]ethyl]tetrahydro-4-hydroxy-2H-pyran-2-one]: the IC50 in test [1] came to 39 nM; in test [2], 110 nM.
